These results are taken from ChEMBL document CHEMBL1201862, “PubChem BioAssay data set” (2004).

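96-well plates; 48 h exposure; 5 concentrations. Endpoints by linear interpolation between flanking doses. Not reached: highest tested concentration assigned. GI50 = concentration required for 50% inhibition of growth.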 Activity calls are given as the source filed them. Rule as the data show it: active = GI50 up to about 1.1 µM and inactive = higher. Some results are limits rather than exact numbers.

Some test systems named below: COLO 205; EKVX; HCT-15; HOP-92; IGROV-1; NCI-H23; NCI/ADR-RES; RPMI-8226; RXF 393; SF-268; SK-MEL-5; T47D; TK-10; UACC-257; UACC-62; K562; MDA-MB-435; HL-60; SK-MEL-2.
Assay in all cases: NCI-60 cell line screen, 48 h

In the case of `CC(=O)Oc1cc2c[n+](C)c3c4cc(OC(C)=O)c(OC(C)=O)cc4ccc3c2cc1OC(C)=O`, the GI50 in the test with COLO 205 was 6.5 µM (inactive); with EKVX, 3.56 µM (inactive); in the test on HCT-15 it was 2.69 µM; in the test on HOP-92, 4.32 µM (inactive); in the test with IGROV-1 it was 2.49 µM (inactive); in the test with NCI-H23, 4.23 µM (inactive). Also, the GI50 is 2.54 µM (inactive) with NCI/ADR-RES; > 20 µM (inactive) with RPMI-8226; 0.168 µM (active) with RXF 393; 0.407 µM (active) in the test on SF-268; 3.17 µM (inactive) in the test on SK-MEL-5; 1.87 µM (inactive) in the test with T47D. Besides, the GI50 in the test with TK-10 is > 100 µM (inactive); in the test with UACC-257 it was 14.5 µM (inactive); in the test with UACC-62 it was 3.97 µM (inactive).

For the molecule `CN(C)c1nc(NN)c2c(-c3ccccc3)c(-c3ccccc3)oc2n1`, the GI50 is > 100 µM (inactive) with COLO 205; > 100 µM (inactive) in the test with EKVX; greater than 100 µM in the test on HCT-15; > 100 µM (inactive) in the test with HOP-92; > 100 µM (inactive) in the test with IGROV-1; 49 µM (inactive) with K562. Moreover, the GI50 was > 100 µM (inactive) in the test on MDA-MB-435; > 100 µM (inactive) in the test with NCI-H23; > 100 µM (inactive) with NCI/ADR-RES; > 100 µM (inactive) in the test on RPMI-8226; > 100 µM (inactive) with RXF 393; 89.1 µM (inactive) in the test with SF-268. Also, the GI50 was > 100 µM (inactive) in the test on T47D, > 100 µM (inactive) in the test with TK-10, > 100 µM (inactive) in the test with UACC-257 and 44.8 µM (inactive) in the test with UACC-62.

For `O=C(/C=C/c1ccc(OCCCOc2ccc(/C=C/C(=O)c3ccc(Cl)cc3)cc2)cc1)c1ccc(Cl)cc1`, the GI50 in the test with COLO 205 is > 100 µM (inactive); in the test on EKVX it was > 100 µM (inactive); with HCT-15 it was greater than 100 µM; in the test on HL-60 it was > 100 µM (inactive); in the test on HOP-92, > 100 µM (inactive); with IGROV-1, > 100 µM (inactive). Also, the GI50 in the test with K562, with NCI-H23, in the test on RPMI-8226, in the test on RXF 393, with SF-268 and in the test with SK-MEL-2 was > 100 µM (inactive) each time. The GI50 in the test on SK-MEL-5, with TK-10, in the test on UACC-257 and in the test on UACC-62 was > 100 µM (inactive) in each case.

Take `CC1CCC2(OC1)OC1CC3C4CCC5CC(O)CCC5(C)C4CC(=O)OC3(C)C1C2C` (centres undefined): the GI50 is > 100 µM (inactive) with COLO 205; > 100 µM (inactive) in the test on EKVX; greater than 100 µM with HCT-15; > 100 µM (inactive) in the test on HL-60; > 100 µM (inactive) with HOP-92; > 100 µM (inactive) in the test with IGROV-1. Also, the GI50 with K562, in the test with NCI-H23, in the test with RPMI-8226, in the test on RXF 393, in the test with SF-268 and in the test on SK-MEL-2 was > 100 µM (inactive) in each case. Also, the GI50 with SK-MEL-5, in the test on TK-10, in the test on UACC-257 and in the test with UACC-62 was > 100 µM (inactive) in each case.

Consider `Cc1ccc(/C=N/Nc2ncccn2)s1`, for which the GI50 in the test with COLO 205 is > 100 µM (inactive); in the test with EKVX, > 100 µM (inactive); in the test with HCT-15, greater than 100 µM; with HOP-92, > 100 µM (inactive); in the test with IGROV-1 it was > 100 µM (inactive); with K562 it was > 10 µM (inactive). The GI50 in the test with MDA-MB-435, with NCI-H23, in the test on NCI/ADR-RES, in the test with RPMI-8226, with RXF 393 and with SF-268 was > 100 µM (inactive) each time. Also, the GI50 in the test with SK-MEL-2, in the test on SK-MEL-5, with T47D, in the test on TK-10, with UACC-257 and with UACC-62 was > 100 µM (inactive) throughout.

On to `O=C(Nc1cc(Cl)c(Cl)cc1Cl)C(=O)C1C(=O)NC(=S)NC1=O`, for which the GI50 was > 100 µM (inactive) in the test on COLO 205; > 100 µM (inactive) in the test with EKVX; greater than 100 µM in the test on HCT-15; > 100 µM (inactive) in the test with HL-60; > 100 µM (inactive) in the test on HOP-92; > 100 µM (inactive) in the test with IGROV-1. Also, the GI50 in the test with K562, with NCI-H23, in the test with RPMI-8226, with RXF 393, with SF-268 and in the test with SK-MEL-2 was > 100 µM (inactive) throughout. Further, the GI50 in the test with SK-MEL-5, in the test with TK-10, in the test with UACC-257 and with UACC-62 was > 100 µM (inactive) each time.

Turning to `[N-]=[N+]=N/C1=C/CCCCC(=O)C1`, the GI50 with COLO 205 is > 100 µM (inactive); with EKVX, > 100 µM (inactive); with HCT-15, greater than 100 µM; with HL-60 it was > 100 µM (inactive); with HOP-92, 51.4 µM (inactive); with IGROV-1 it was > 100 µM (inactive). Also, the GI50 in the test with K562, in the test with NCI-H23, in the test with RPMI-8226, in the test on RXF 393, in the test on SF-268 and in the test with SK-MEL-2 was > 100 µM (inactive) in each case. Moreover, the GI50 in the test on SK-MEL-5, with TK-10, in the test with UACC-257 and in the test with UACC-62 was > 100 µM (inactive) throughout.

For the molecule `CC(C)=C/C=C1/CS(=O)(=O)C=C1C`, the GI50 in the test with COLO 205 is > 100 µM (inactive); in the test on EKVX, > 100 µM (inactive); in the test on HCT-15 it was 47.4 µM; in the test with HL-60, > 100 µM (inactive); in the test with IGROV-1, > 100 µM (inactive); in the test on K562, > 100 µM (inactive). Also, the GI50 in the test on MDA-MB-435, in the test on NCI-H23, in the test with NCI/ADR-RES, in the test on RPMI-8226, in the test with RXF 393 and in the test with SK-MEL-2 was > 100 µM (inactive) throughout. The GI50 in the test on SK-MEL-5, in the test on T47D, with TK-10, in the test with UACC-257 and in the test with UACC-62 was > 100 µM (inactive) throughout.

Regarding `[O-][n+]1c2cc3c(cc2[n+]([O-])c2c(O)cccc21)CN(CCN1CCOCC1)C3`, the GI50 in the test on COLO 205 was 14.5 µM (inactive); in the test on EKVX, 14.9 µM (inactive); in the test on HCT-15, 27.4 µM; in the test with HL-60, 5.7 µM (inactive); with HOP-92, 5.7 µM (inactive); with IGROV-1, 12.7 µM (inactive). Besides, the GI50 in the test with K562 was 12 µM (inactive); in the test with NCI-H23, 30.7 µM (inactive); with RPMI-8226, 18.4 µM (inactive); with RXF 393, 16.1 µM (inactive); in the test on SF-268, 11.2 µM (inactive); in the test on SK-MEL-2, 20.7 µM (inactive). The GI50 in the test on SK-MEL-5 was 56 µM (inactive); with TK-10, 27.4 µM (inactive); in the test with UACC-257, 23.4 µM (inactive); in the test on UACC-62, 24.8 µM (inactive).

For the molecule `O=C(CC(C(=O)c1ccsc1)c1cccs1)c1cccs1` (centres undefined), the GI50 with COLO 205 is 94.8 µM (inactive); in the test with EKVX, 42.5 µM (inactive); in the test with HCT-15, 65.5 µM; in the test on HL-60, 56.8 µM (inactive); in the test on HOP-92, > 100 µM (inactive); in the test on IGROV-1, > 100 µM (inactive). Besides, the GI50 was 73.5 µM (inactive) in the test on K562; > 100 µM (inactive) in the test on NCI-H23; 33.1 µM (inactive) in the test on RPMI-8226; > 100 µM (inactive) in the test on RXF 393; > 100 µM (inactive) in the test with SF-268; > 100 µM (inactive) with SK-MEL-2. The GI50 with SK-MEL-5 is 22.9 µM (inactive); in the test on TK-10, > 100 µM (inactive); in the test with UACC-257, 51.4 µM (inactive); with UACC-62, 75.7 µM (inactive).

For `CC(=O)O[C@H]1C=CC23OC(=O)[C@]1(C)[C@H]2[C@H](C(=O)O)C12CC(=O)[C@@](CO)(CC[C@H]13)C2`, the GI50 was > 100 µM (inactive) in the test with COLO 205; > 100 µM (inactive) with EKVX; greater than 100 µM in the test with HCT-15; > 100 µM (inactive) in the test on HL-60; > 100 µM (inactive) in the test on HOP-92; > 100 µM (inactive) in the test with IGROV-1. In addition, the GI50 in the test on K562, with NCI-H23, with RPMI-8226, in the test with RXF 393, with SF-268 and in the test with SK-MEL-2 was > 100 µM (inactive) in each case. Moreover, the GI50 is > 100 µM (inactive) with SK-MEL-5, > 100 µM (inactive) with TK-10, > 100 µM (inactive) in the test with UACC-257 and 75.7 µM (inactive) in the test with UACC-62.

As for `COc1cc2c(c(OC)c1OC)-c1ccc(SC)c(=O)cc1[C@@H](NCc1ccccc1[N+](=O)[O-])CC2`, the GI50 in the test on COLO 205 was 0.0082 µM (active); in the test with EKVX, 0.0564 µM (active); in the test on HCT-15 it was 0.0113 µM; with HL-60, 0.00313 µM (active); in the test with HOP-92, 0.0257 µM (active); with IGROV-1 it was 0.0135 µM (active). Also, the GI50 was 0.00369 µM (active) with K562; 0.00429 µM (active) with NCI-H23; 0.00671 µM (active) in the test with RPMI-8226; 0.00286 µM (active) in the test with RXF 393; 0.0106 µM (active) in the test on SF-268; 0.0217 µM (active) in the test on SK-MEL-2. Moreover, the GI50 in the test with SK-MEL-5 was 0.00411 µM (active); in the test with TK-10, 0.061 µM (active); in the test with UACC-257, 0.00561 µM (active); in the test with UACC-62, 0.00326 µM (active).
